Experimental data reported in patent publication US9216968B2, “Heterocyclic derivative and pharmaceutical drug” (NIPPON SHINYAKU CO., LTD., priority 2011, dated 2015).
Structures can show the parent of a compound that is named as a salt.

How the values were obtained:
A549 cells = assay: Inhibition of PGE2 production in A549 cell (IL-1β stimulated); assay type: cell-based, human; details: Homo sapiens, A549, 24 h, IL-1β 5 ng/well, PGE2 in culture medium
Summary of the method: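 A549 cells preincubated 60 min with compound in RPMI/3% FBS (final DMSO 0.10), then stimulated with IL-1β (5 ng/well) for 24 h at 37 °C. PGE2 measured by HTRF and PGF2α by EIA in medium; IC50 from inhibition relative to stimulated minus unstimulated production.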

human mPGES-1 = human mPGES-1 (Homo sapiens (Human), UniProt O14684); assay: mPGES-1 inhibiting activity (microsome fractions, PGE2 by HTRF); assay type: biochemical; details: microsomes from CHO-K1 cells transfected with human mPGES-1; PGH2 1 μM, 4° C., 60 seconds; read-out: mPGES-1 Inhibition IC50
Summary of the method: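 PGE2 formation read by HTRF after 60 s at 4 °C with 1 μM PGH2 substrate, following 20 min compound preincubation (1% DMSO) with human mPGES-1 microsomes from transfected CHO-K1 cells. Buffer: potassium phosphate, reduced glutathione, pH 7.4; IC50 from activity relative to enzyme-free blank.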

human mPGES-1, sequence (O14684 whole entry): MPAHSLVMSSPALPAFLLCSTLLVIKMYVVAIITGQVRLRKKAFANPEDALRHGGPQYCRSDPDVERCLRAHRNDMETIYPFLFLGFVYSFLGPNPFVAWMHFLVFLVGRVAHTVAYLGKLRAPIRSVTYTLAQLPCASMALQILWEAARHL

Row | Compound | IC50 (A549 cells) [nM] | IC50 (human mPGES-1) [nM]
1 | Cc1c(Cl)cccc1NC(=O)c1cc(NC(=O)c2cc(Cl)ccc2Cl)cc2[nH]c(NCC(C)(C)CO)nc12 [Example 189, N-(3-Chloro-2-methylphenyl)-6-{[(2,5-dichlorophenyl)carbonyl]amino}-2-[(3-hydroxy-2,2-dimethylpropyl)amino]-1H-benzimidazole-4-carboxamide hydrochloride] | 24.5 | 1.4
2 | COCc1nc2c(C(=O)Nc3cccc(Cl)c3C)cc(NC(=O)c3ccncc3Cl)cc2[nH]1 [Example 245, N-(3-Chloro-2-methylphenyl)-6-{[(3-chloropyridin-4-yl)carbonyl]amino}-2-(methoxymethyl)-1H-benzimidazole-4-carboxamide hydrochloride] | 166 | 25.7
3 | Cc1c(Cl)cccc1NC(=O)c1cc(NC(=O)c2ccccc2C(F)(F)F)cc2[nH]c(N3CCC3)nc12 [Example 165, 2-(Azetidin-1-yl)-N-(3-chloro-2-methylphenyl)-6-({[2-(trifluoromethyl)phenyl]carbonyl}amino)-1H-benzimidazole-4-carboxamide hydrochloride] | 7.4 | 1.3
4 | CCOCCc1nc2c(C(=O)Nc3cccc(Cl)c3C)cc(NC(=O)c3ccccc3C(F)(F)F)cc2[nH]1 [Example 78, N-(3-Chloro-2-methylphenyl)-2-(2-ethoxyethyl)-6-({[2-(trifluoromethyl)phenyl]carbonyl}amino)-1H-benzimidazole-4-carboxamide hydrochloride] | 177 | 96.8
5 | Cc1ccc(NC(=O)c2cc(NC(=O)c3cc(Cl)ccc3Cl)cc3[nH]c(C4(C)CC4)nc23)cc1Cl [Example 211, N-(3-Chloro-4-methylphenyl)-6-{[(2,5-dichlorophenyl)carbonyl]amino}-2-(1-methylcyclopropyl)-1H-benzimidazole-4-carboxamide hydrochloride] | 8.5 | 2.5
6 | COCc1nc2c(C(=O)Nc3cccc(Cl)c3C)cc(NC(=O)c3cc(C)ccc3C(F)(F)F)cc2[nH]1 [Example 109, N-(3-Chloro-2-methylphenyl)-2-(methoxymethyl)-6-({[5-methyl-2-(trifluoromethyl)phenyl]carbonyl}amino)-1H-benzimidazole-4-carboxamide hydrochloride] | 8.7 | 7.8
7 | COCc1nc2c(C(=O)Nc3cccc(Cl)c3C)cc(NC(=O)c3cc(CCCOC(C)(C)C)ccc3Cl)cc2[nH]1 [Example 118, 6-({[5-(3-tert-Butoxypropyl)-2-chlorophenyl]carbonyl}amino)-N-(3-chloro-2-methylphenyl)-2-(methoxymethyl)-1H-benzimidazole-4-carboxamide hydrochloride] | 5.3 | 7.3
8 | Cc1c(Cl)cccc1NC(=O)c1cc(NC(=O)c2ccccc2C(F)(F)F)cc2[nH]c(NCC(=O)OC(C)(C)C)nc12 [Example 160, tert-Butyl N-{4-[(3-chloro-2-methylphenyl)carbamoyl]-6-({[2-(trifluoromethyl)phenyl]carbonyl}amino)-1H-benzimidazol-2-yl}glycinate hydrochloride] | 71.6 | 7.6
9 | Cc1c(Cl)cccc1NC(=O)c1cc(NC(=O)c2c(F)cccc2Cl)cc2[nH]c(NCCOC(C)C)nc12 [Example 194, 6-{[(2-Chloro-6-fluorophenyl)carbonyl]amino}-N-(3-chloro-2-methylphenyl)-2-{[2-(propan-2-yloxy)ethyl]amino}-1H-benzimidazole-4-carboxamide hydrochloride] | 33.8 | 0.4
10 | Cc1c(Cl)cccc1NC(=O)c1cc(NC(=O)c2ccccc2C(F)(F)F)cc2[nH]c(C3CCCC3)nc12 [Example 124, N-(3-Chloro-2-methylphenyl)-2-cyclopentyl-6-({[2-(trifluoromethyl)phenyl]carbonyl}amino)-1H-benzimidazole-4-carboxamide hydrochloride] | 3.2 | 2.2
11 | Cc1c(Cl)cccc1NC(=O)c1cc(NC(=O)c2ccccc2C(F)(F)F)cc2[nH]c(N[C@H](CO)C(C)(C)C)nc12 [Example 172, N-(3-Chloro-2-methylphenyl)-2-{[(2S)-1-hydroxy-3,3-dimethylbutan-2-yl]amino}-6-({[2-(trifluoromethyl)phenyl]carbonyl}amino)-1H-benzimidazole-4-carboxamide hydrochloride] | 134 | 4.5
12 | Cc1c(Cl)cccc1NC(=O)c1cc(NC(=O)c2c(F)cccc2Br)cc2[nH]c(N(C)C)nc12 [Example 186, 6-{[(2-Bromo-6-fluorophenyl)carbonyl]amino}-N-(3-chloro-2-methylphenyl)-2-(dimethylamino)-1H-benzimidazole-4-carboxamide hydrochloride] | 13.9 | 6.1
13 | CC(C)(C)c1nc2c(C(=O)NCc3ncccc3C(F)(F)F)cc(NC(=O)c3ccccc3C(F)(F)F)cc2[nH]1 [Example 77, 2-tert-Butyl-6-({[2-(trifluoromethyl)phenyl]carbonyl}amino)-N-{[3-(trifluoromethyl)pyridin-2-yl]methyl}-1H-benzimidazole-4-carboxamide dihydrochloride] | 32.9 | 1.7
14 | Cc1c(Cl)cccc1NC(=O)c1cc(NC(=O)c2ccccc2C(F)(F)F)cc2[nH]c(NCCN(C(C)C)C(C)C)nc12 [Example 155, N-(3-Chloro-2-methylphenyl)-2-{[2-(dipropan-2-ylamino)ethyl]amino}-6-({[2-(trifluoromethyl)phenyl]carbonyl}amino)-1H-benzimidazole-4-carboxamide hydrochloride] | 209 | 101
15 | COCCCNc1nc2c(C(=O)Nc3cccc(Cl)c3C)cc(NC(=O)c3ccccc3C(F)(F)F)cc2[nH]1 [Example 174, N-(3-Chloro-2-methylphenyl)-2-[(3-methoxypropyl)amino]-6-({[2-(trifluoromethyl)phenyl]carbonyl}amino)-1H-benzimidazole-4-carboxamide hydrochloride] | 117 | 2
16 | COCc1nc2c(C(=O)Nc3cccc(Cl)c3C)cc(NC(=O)c3ccccc3Br)cc2[nH]1 [Example 97, 6-{[(2-Bromophenyl)carbonyl]amino}-N-(3-chloro-2-methylphenyl)-2-(methoxymethyl)-1H-benzimidazole-4-carboxamide hydrochloride] | 43.1 | 6.1
17 | COCC(C)(C)CNc1nc2c(C(=O)Nc3cccc(Cl)c3C)cc(NC(=O)c3c(F)cccc3Cl)cc2[nH]1 [Example 196, 6-{[(2-Chloro-6-fluorophenyl)carbonyl]amino}-N-(3-chloro-2-methylphenyl)-2-[(3-methoxy-2,2-dimethylpropyl)amino]-1H-benzimidazole-4-carboxamide hydrochloride] | 35.9 | 6.5
18 | Cc1c(Cl)cccc1NC(=O)c1cc(NC(=O)c2c(Cl)cccc2Cl)cc2[nH]c(N(C)C)nc12 [Example 183, N-(3-Chloro-2-methylphenyl)-6-{[(2,6-dichlorophenyl)carbonyl]amino}-2-(dimethylamino)-1H-benzimidazole-4-carboxamide hydrochloride] | 6.1 | 1.9
19 | Cc1c(Cl)cccc1NC(=O)c1cc(NC(=O)c2c(Cl)cccc2Br)cc2[nH]c(N(C)C)nc12 [Example 187, 6-{[(2-Bromo-6-chlorophenyl)carbonyl]amino}-N-(3-chloro-2-methylphenyl)-2-(dimethylamino)-1H-benzimidazole-4-carboxamide hydrochloride] | 12.7 | 3.6
20 | COCc1nc2c(C(=O)Nc3cccc4ccccc34)cc(NC(=O)c3ccccc3C(F)(F)F)cc2[nH]1 [Example 219, 2-(Methoxymethyl)-N-(naphthalen-1-yl)-6-({[2-(trifluoromethyl)phenyl]carbonyl}amino)-1H-benzimidazole-4-carboxamide hydrochloride] | 26 | 2
21 | Cc1c(Cl)cccc1NC(=O)c1cc(NC(=O)c2c(F)cccc2Cl)cc2[nH]c(N(C)C)nc12 [Example 182, 6-{[(2-Chloro-6-fluorophenyl)carbonyl]amino}-N-(3-chloro-2-methylphenyl)-2-(dimethylamino)-1H-benzimidazole-4-carboxamide hydrochloride] | 38.4 | 1.6
22 | CCOCCOCc1ccc(Cl)c(C(=O)Nc2cc(C(=O)Nc3cccc(Cl)c3C)c3nc(COC)[nH]c3c2)c1 [Example 121, 6-[({2-Chloro-5-[(2-ethoxyethoxy)methyl]phenyl}carbonyl)amino]-N-(3-chloro-2-methylphenyl)-2-(methoxymethyl)-1H-benzimidazole-4-carboxamide hydrochloride] | 432 | 6.3
23 | COCc1nc2c(C(=O)NCc3ccc(C)cc3)cc(NC(=O)c3ccccc3C(F)(F)F)cc2[nH]1 [Example 25, 2-(Methoxymethyl)-N-(4-methylbenzyl)-6-({[2-(trifluoromethyl)phenyl]carbonyl}amino)-1H-benzimidazole-4-carboxamide hydrochloride] | 850 | 89
24 | CSc1nc2c(C(=O)Nc3cccc(Cl)c3C)cc(NC(=O)c3ccccc3C(F)(F)F)cc2[nH]1 [Example 179, N-(3-Chloro-2-methylphenyl)-2-(methylsulfanyl)-6-({[2-(trifluoromethyl)phenyl]carbonyl}amino)-1H-benzimidazole-4-carboxamide] | 20.2 | 3.6
